Source: patent US20090318413A1, “BRONCHIAL SMOOTH MUSCLE REMODELING INVOLVES CALCIUM-DEPENDENT ENHANCED MITOCHONDRIAL BIOGENESIS IN ASTHMA” (UNIVERSITE VICTOR SEGALEN BORDEAUX 2, priority 2008, published 2009)
Like-named read-outs stand apart in the source and are kept apart here.

Legend:
[1] = system: BSM cells; assay: Microspectrofluorimetry of intracellular calcium (indo-1) after acetylcholine stimulation; type: cell-based, human; details: asthmatic BSM cells; 10^-5 M acetylcholine; 1 μM D600 with 2 mM Ca2+, or 400 μM EGTA without extracellular calcium
Procedure: Change in growth-arrested BSM cell intracellular calcium concentration ([Ca^2+]i), was assessed using the Ca^2+-sensitive probe indo-1, as previously described (Berger et al., J. Appl. Physiol. 91:995-1003 (2001); Trian et al., Am. J. Respir. Cell Mol. Biol. 34:49-55 (2006)). In brief, cells were loaded with indo-1 (Calbiochem) and mounted in a perfusion chamber continuously perfused with phosphate salt solution containing either 2 mM Ca2+ in the absence or presence of 1 μM D600, or 400 μM EGTA (Sigma-Aldrich) in the absence of extracellular calcium. BSM cells were stimulated with 10^−5 M acetylcholine or histamine (both from Sigma-Aldrich). Individual cell calcium levels were monitored continuously. Results were expressed as the mean±the SEM of resting or peak of [Ca^2+]i rises (in […]) and area under the curves (nanomoles/second). Experiments were carried out at room temperature (22-25° C.).

[2] = system: CaMK-IV; assay: Western blot of phosphorylated CaMK-IV in BSM cells; type: cell-based, human; details: asthmatic BSM cells; 1 μM D600
Procedure: (§1) To analyze the mitochondrial ultrastructure, BSM cells were growth arrested, as described in the previous section, for 6 d. Three million cells were then collected and centrifuged at 400 g for 5 min. Cell pellets were fixed in 2.5% glutaraldehyde for 2 h at 4° C. and processed for electron microscopy, as described in the previous section. Growth curves were built to assess the role of mitochondria in cell proliferation. For this purpose, 25,000 BSM cells were plated on 75-cm^2 flasks and cultured with 10% FCS-DME containing either 4.5 g/liter galactose or 4.5 g/liter glucose. […] For these latter experiments, medium was changed every 24 h, and, at the indicated time, BSM cells were harvested by trypsinization and counted in triplicate using a cytometer.
(§2) Whole lysates from BSM cells were collected using 1% Triton X-100 lysis buffer in the presence of 2 mM Na orthovanadate, 1 mM EDTA, 50 μg/ml aprotinin, 100 μM leupeptin, 1 mM 1.4 Dithio-DL-Treitol, and 1 mM amino-ethyl-benzenesulfonyl fluoride hydrochloride (all from Sigma-Aldrich). […] Blot images were acquired using BioCaptMW (Thermo Fisher Scientific), and band densities were quantified using ImageJ software.

[3] = system: PGC-1α; assay: Western blot of PGC-1α in BSM cells; type: cell-based, human; details: asthmatic BSM cells; 1 μM D600 for 48 h
Procedure: as §1, §2

[4] = system: NRF-1; assay: Western blot of NRF-1 in BSM cells; type: cell-based, human; details: asthmatic BSM cells; 1 μM D600 for 48 h
Procedure: as §1, §2

[5] = system: mtTFA; assay: Western blot of mtTFA in BSM cells; type: cell-based, human; details: asthmatic BSM cells; 1 μM D600 for 48 h
Procedure: as §1, §2

[6] = system: porin; assay: Mitochondrial mass by porin content (Western blot) in BSM cells; type: cell-based, human
Procedure: (§3) To analyze the mitochondrial ultrastructure, BSM cells were growth arrested, as described in the previous section, for 6 d. Three million cells were then collected and centrifuged at 400 g for 5 min. Cell pellets were fixed in 2.5% glutaraldehyde for 2 h at 4° C. and processed for electron microscopy, as described in the previous section. Growth curves were built to assess the role of mitochondria in cell proliferation. For this purpose, 25,000 BSM cells were plated on 75-cm^2 flasks and cultured with 10% FCS-DME containing either 4.5 g/liter galactose or 4.5 g/liter glucose. In another set of experiments, we investigated the effects of 50 μg/liter ethidium bromide (Qbiogene) for up to 33 d, 1.3 g/liter cyclic cGMP (3 mM; Sigma-Aldrich) for up to 6 d, or […] D600, i.e., methoxyverapamil or gallopamil (1 μM; Sigma-Aldrich) for up to 2 d in 10% FCS-DME containing 4.5 g/liter glucose. For these latter experiments, medium was changed every 24 h, and, at the indicated time, BSM cells were harvested by trypsinization and counted in triplicate using a cytometer.
Whole lysates from BSM cells were collected using 1% Triton X-100 lysis buffer in the presence of 2 mM Na orthovanadate, 1 mM EDTA, 50 μg/ml aprotinin, 100 μM leupeptin, 1 mM 1.4 Dithio-DL-Treitol, and 1 mM amino-ethyl-benzenesulfonyl fluoride hydrochloride (all from Sigma-Aldrich). Cellular extracts were reduced with mercaptoethanol, subjected to electrophoresis on a 10% acrylamide reducing gel, and transferred to PVDF membranes (Immobilon TM-P; Millipore). The immunoblots were then developed using mouse anti-human porin (MitoSciences), mouse anti-human α-actin (Sigma-Aldrich), rabbit anti-human phospho-CaMK-IV, rabbit anti-human PGC-1α, rabbit anti-human NRF-1, or rabbit anti-human mitochondrial transcription factor A (mtTFA; all purchased from Santa Cruz Biotechnology, Inc.) for 14 h at 4° C. For amplification, biotinylated goat secondary antibody anti-mouse IgG (Bio-Rad Laboratories) or anti-rabbit IgG (Santa Cruz Biotechnology, Inc.) for 2 h at room temperature and a streptavidin-biotinylated horseradish peroxidase complex (Dako) were used. […] Blot images were acquired using BioCaptMW (Thermo Fisher Scientific), and band densities were quantified using ImageJ software.

[7] = system: BSM cells; assay: BrdU incorporation (DNA synthesis) in BSM cells; type: cell-based, human; details: 10% FCS-DME glucose, ethidium bromide or cyclic GMP 24 h
Procedure: Growth-arrested BSM cells were cultured in 96-well plates for 24 h and stimulated with 10% FCS-DME containing glucose, galactose, ethidium bromide, or cyclic GMP for 24 h or containing D600 for 48 h, as described above. Control BSM cells remained in serum-deprived DME. DNA synthesis was measured using the BrdU kit according to the manufacturer's instructions (Roche). In brief, BSM cells were incubated with 10 μM BrdU for 2 h at 37° C. and fixed for 20 min at room temperature. Cells were denaturized for 30 min and incubated with the anti-BrdU antibody for 2 h at room temperature. Absorbance was measured at 370 nm in a microplate reader in triplicate. Results are expressed as a normalized ratio of BrdU incorporation, i.e. absorbance for test condition divided by absorbance for control serum-deprived condition.

[8] = system: BSM cells; assay: BSM cell growth curves (cell counting), doubling time and proliferation; type: cell-based, human; details: for doubling time of cell growth: glucose medium + 50 μg/liter ethidium bromide or 3 mM cyclic GMP; for proliferation of BSM cells: glucose medium + ethidium bromide or cyclic GMP
Procedure: as §3

[9] = system: U937, L6, and PC12; details: various cell lines, including U937, L6, and PC12; cited from earlier work
[10] = system: vascular smooth muscle cells; details: mesangial cells and various fibroblasts; cited from earlier work
[11] = system: endothelial cells; details: cited from earlier work

5-[2-(3,4-dimémethoxyphenyl)ethyl-methylamino]-2-propan-2-yl-2-(3,4,5-triméthoxyphenyl)pentanenitrile hydrochloride [D600]
abnormal calcium response (area under the curve) to acetylcholine [1]: abolished | activation (phosphorylation) of CaMK-IV [2]: inhibited | activation of mitochondrial biogenesis through PGC-α [3]: inhibited | activation of mitochondrial biogenesis through NRF-1 [4]: inhibited | activation of mitochondrial biogenesis through mtTFA [5]: inhibited | mitochondrial content (amount of porin) [6]: blocks | BrdU incorporation ([7]; asthmatic BSM cells, 1 μM D600 48 h): significantly inhibited

Nc1nc2c(ncn2[C@@H]2O[C@@H]3COP(=O)(O)O[C@H]3[C@H]2O)c(=O)[nH]1 [cyclic GMP]
mitochondrial content (amount of porin) ([6]; COPD BSM cells, ethidium bromide or cyclic GMP 6 d): increased | mitochondrial content (amount of porin) ([6]; asthmatic BSM cells, ethidium bromide or cyclic GMP 6 d, 1 μM D600 48 h): failed to additionally increase | mitochondrial content (amount of porin) ([6]; control BSM cells, ethidium bromide or cyclic GMP 6 d): increased | doubling time of cell growth ([8]; COPD BSM cells): significantly decreased | proliferation of BSM cells ([8]; COPD BSM cells): increased | doubling time of cell growth ([8]; asthmatic BSM cells): had no effect | proliferation of BSM cells ([8]; asthmatic BSM cells): had no effect | doubling time of cell growth ([8]; control BSM cells): decreased | proliferation of BSM cells ([8]; control BSM cells): increased | BrdU incorporation ([7]; COPD BSM cells): increased | BrdU incorporation ([7]; control BSM cells): increased | PGC-1α and mitochondrial biogenesis [9]: activate | proliferation [10]: inhibit | proliferation of endothelial cells [11]: increased

O=C(O)CN(CCOCCOCCN(CC(=O)O)CC(=O)O)CC(=O)O [EGTA]
abnormal calcium response (area under the curve) to acetylcholine [1]: abolished
